# Values of other authors in patent publication US20080009419A1, “GENETIC MODELS FOR STRATIFICATION OF CANCER RISK” (INTERGENETICS, INC., priority 2006, published 2008).
# Read-outs that look alike come from different tables or passages of the source.
# Key:
# [1] = test system: estrogen receptors; conditions: animal test systems
# [2] = test system: estrogen receptors; conditions: preclinical data
# [3] = test system: incidence of breast cancer; conditions: large osteoporosis prevention and treatment study
# [4] = following chronic dosing
# [5] = test system: invasive breast cancer incidence; conditions: postmenopausal women at high risk, by mouth once a day
# [6] = for range of peak plasma concentration: single oral dose of 20 mg tamoxifen
# [7] = test system: rat mammary carcinoma induced by dimethylbenzanthracene (DMBA); conditions: rats
# [8] = 10 mg tamoxifen twice daily for 3 months, patients
# [9] = 20 mg tamoxifen once daily for 3 months
SMILES,reduction in invasive breast cancer incidence [5] [%],"range of steady-state plasma concentration [6, 8] [ng/mL]","range of steady-state plasma concentration [6, 9] [ng/mL]",range of peak plasma concentration [6] [ng/mL],other results
"CC/C(=C(\c1ccccc1)c1ccc(OCCN(C)C)cc1)c1ccccc1.O=C(O)CC(O)(CC(=O)O)C(=O)O [Tamoxifen citrate, (Z)2-[4-(1,2-diphenyl-1-butenyl)phenoxy]-N,N-dimethylethanamine 2-hydroxy-1,2,3-propanetricarboxylate (1:1)]",–,–,–,–,antiestrogenic properties [1]: potent antiestrogenic properties
O=C(c1ccc(OCCN2CCCCC2)cc1)c1c(-c2ccc(O)cc2)sc2cc(O)ccc12 [Raloxifene],50,–,–,–,estrogen antagonism in uterine and breast tissues [2]: estrogen antagonist; incidence of breast cancer [3]: shown to reduce the incidence of breast cancer; clearance [4]: 40 to 60 L/kg per hour
CC/C(=C(\c1ccccc1)c1ccc(OCCNC)cc1)c1ccccc1 [N-desmethyl tamoxifen],–,148 to 654,152 to 706,10 to 20,"half-life suggested by time to steady state ([6]; human, in vivo): approximately 14 days"
CC/C(=C(\c1ccccc1)c1ccc(OCCN(C)C)cc1)c1ccccc1 [Tamoxifen],50,67 to 183,71 to 183,35 to 45,DMBA-induced tumors in situ [7]: causes the regression; terminal elimination half-life ([6]; biphasic decline in plasma): 120 to 170 h
